These results are taken from patent publication US12139520B2 (priority 2020, dated 2024).

As a reminder, the EC50 is the midpoint of the concentration-response curve.

The target in one data set is T1, hAMY3 receptor (Homo sapiens, UniProt O60896+P30988).
T1 sequence (P30988 25-474): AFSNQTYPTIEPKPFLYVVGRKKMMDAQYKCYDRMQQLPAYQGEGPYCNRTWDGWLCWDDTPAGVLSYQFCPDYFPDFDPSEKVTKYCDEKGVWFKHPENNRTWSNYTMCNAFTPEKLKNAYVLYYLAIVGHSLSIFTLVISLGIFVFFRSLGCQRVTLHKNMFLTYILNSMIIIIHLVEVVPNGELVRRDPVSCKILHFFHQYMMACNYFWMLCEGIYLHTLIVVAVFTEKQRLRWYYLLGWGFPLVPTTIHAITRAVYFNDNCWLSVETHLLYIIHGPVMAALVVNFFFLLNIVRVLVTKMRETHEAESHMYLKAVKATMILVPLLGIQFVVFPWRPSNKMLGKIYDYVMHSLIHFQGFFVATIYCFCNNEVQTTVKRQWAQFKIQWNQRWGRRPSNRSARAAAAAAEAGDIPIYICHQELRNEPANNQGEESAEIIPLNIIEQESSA
T1 sequence (O60896 24-148 partner): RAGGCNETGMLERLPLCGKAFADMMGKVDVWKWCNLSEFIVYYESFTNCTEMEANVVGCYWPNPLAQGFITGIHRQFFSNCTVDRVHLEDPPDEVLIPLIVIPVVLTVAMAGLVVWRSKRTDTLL
Description: cAMP assay for in vitro receptor activation, hAMY3-R. The class given is cell-based. The settings on record: cAMP assay, hAMY3 receptor; read-out: hAMY3R EC50. Put shortly: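 Receptor activation was measured as cAMP accumulation in a monoclonal cell line stably overexpressing hAMY3. Stimulation with graded doses lasted 30 min at room temperature in the presence of 0.5 mM IBMX, with human amylin as positive control.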
In general terms: Cyclic AMP is a second messenger, typically raised through Gs and lowered through Gi signalling.

Data set [1] in a line: Physical stability of peptide analogues (Thioflavin T fibrillation). It is filed as physicochemical. The note with it: maximum ThT signal normalized between hAMY maximum and buffer background; 40° C., shaking, four days; pH 7 per table title. Put shortly:
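Maximum ThT emission at 480 nm, after LOESS smoothing, is given as percent of the span from buffer background to hAMY. Conditions: 50 mM buffer at pH 4 or 7, 4 μM dye, 40 °C, repeated shaking, readings every 10 min for four days.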

The next data set deals with hAM1 receptor (Homo sapiens, UniProt O60895+Q16602). Description: cAMP assay for in vitro receptor activation, hAM1-R. It is filed as cell-based. The settings on record: cAMP assay, hAM1 receptor; read-out: hAM1R EC50. An outline of the steps:
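Receptor activation, read as cAMP, was assessed in thawed cells of a monoclonal hAM1-overexpressing stable line, plated at 8000 cells/well in DPBS supplemented with 0.05% casein and 0.5 mM IBMX.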

Bridge positions count the residues as written; N and C are the ends. Square brackets hold non-standard residues; d marks the D form. Peptide text beside a SMILES is read from it. Hyp = O=C(O)[C@@H]1C[C@@H](O)CN1

Chain of hAM1 receptor (Q16602 23-461): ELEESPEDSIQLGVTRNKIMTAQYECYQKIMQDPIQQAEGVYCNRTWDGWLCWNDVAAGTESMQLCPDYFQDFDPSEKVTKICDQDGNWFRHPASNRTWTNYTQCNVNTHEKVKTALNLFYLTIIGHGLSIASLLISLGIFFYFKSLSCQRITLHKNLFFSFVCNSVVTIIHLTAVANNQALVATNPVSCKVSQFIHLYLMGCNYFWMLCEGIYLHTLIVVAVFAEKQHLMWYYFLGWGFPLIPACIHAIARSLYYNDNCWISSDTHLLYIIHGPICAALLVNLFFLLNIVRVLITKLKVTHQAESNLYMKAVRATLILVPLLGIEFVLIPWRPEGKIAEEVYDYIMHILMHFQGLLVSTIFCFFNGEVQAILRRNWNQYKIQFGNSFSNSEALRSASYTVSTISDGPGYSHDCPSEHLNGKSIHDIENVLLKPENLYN
Chain of hAM1 receptor (O60895 43-175 partner): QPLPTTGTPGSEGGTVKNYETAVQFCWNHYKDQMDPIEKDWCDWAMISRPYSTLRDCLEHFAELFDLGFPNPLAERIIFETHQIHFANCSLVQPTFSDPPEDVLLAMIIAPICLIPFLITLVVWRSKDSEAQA

`CC[C@H](C)[C@H](NC(=O)[C@H](C)NC(=O)[C@H](Cc1c[nH]cn1)NC(=O)[C@H](C)NC(=O)[C@H](CC(C)C)NC(=O)[C@H](Cc1c[nH]c2ccccc12)NC(=O)[C@H](CCC(N)=O)NC(=O)[C@@H](NC(=O)[C@@H](NC(=O)[C@@H]1CSSC[C@H](NC(=O)[C@@H](N)CCCCN)C(=O)N[C@@H](CC(N)=O)C(=O)N[C@@H]([C@@H](C)O)C(=O)N[C@@H](C)C(=O)N[C@@H]([C@@H](C)O)C(=O)N1)[C@@H](C)O)C(C)C)C(=O)N[C@@H](Cc1ccc(O)cc1)C(=O)N[C@@H](CCC(N)=O)C(=O)N[C@@H](Cc1ccccc1)C(=O)N[C@H](C(=O)N[C@@H](CC(=O)O)C(=O)N[C@@H](CCCCN)C(=O)N[C@@H](CC(=O)O)C(=O)N[C@@H](CCCCN)C(=O)N[C@@H](CC(=O)O)C(=O)N[C@@H](CC(N)=O)C(=O)N[C@H](C(=O)N[C@@H](C)C(=O)N1CCC[C@H]1C(=O)N1CCC[C@H]1C(=O)N[C@H](C(=O)N[C@@H](CC(N)=O)C(=O)N[C@H](C(=O)NCC(=O)N[C@@H](CO)C(=O)N[C@@H](CC(N)=O)C(=O)NCC(=O)N1C[C@H](O)C[C@H]1C(N)=O)C(C)C)[C@@H](C)O)C(C)C)[C@@H](C)O` [compound 308] (H-KCNTATCTVQWLAHAIYQFTDKDKDNVAPPTNVGSNG[Hyp]-NH2; disulfide 2-7; N-terminus assumed): the EC50 at hAMY3 receptor is 0.014 nM; at hAM1 receptor it was over 5000 nM. For the same compound, the “Max ThT signal (%)” value in data set [1] was 14.500%.

As to `CC[C@H](C)[C@H](NC(=O)[C@H](CCC(N)=O)NC(=O)[C@H](Cc1c[nH]cn1)NC(=O)[C@H](C)NC(=O)[C@H](CC(C)C)NC(=O)[C@H](Cc1c[nH]c2ccccc12)NC(=O)[C@H](CCC(N)=O)NC(=O)[C@@H](NC(=O)[C@@H](NC(=O)[C@@H]1CSSC[C@H](NC(=O)[C@@H](N)CCCCN)C(=O)N[C@@H](CC(N)=O)C(=O)N[C@@H]([C@@H](C)O)C(=O)N[C@@H](C)C(=O)N[C@@H]([C@@H](C)O)C(=O)N1)[C@@H](C)O)C(C)C)C(=O)N[C@@H](Cc1ccc(O)cc1)C(=O)N[C@@H](CCC(N)=O)C(=O)N[C@@H](Cc1ccccc1)C(=O)N[C@H](C(=O)N[C@@H](CC(=O)O)C(=O)N[C@@H](CCCCN)C(=O)N[C@@H](CC(=O)O)C(=O)N[C@@H](CCCCN)C(=O)N[C@@H](CC(=O)O)C(=O)N[C@@H](CC(N)=O)C(=O)N[C@H](C(=O)N1CCC[C@H]1C(=O)N1CCC[C@H]1C(=O)N[C@H](C(=O)N[C@@H](CC(N)=O)C(=O)N[C@H](C(=O)NCC(=O)N[C@@H](CO)C(=O)N[C@@H](CC(N)=O)C(=O)NCC(=O)N1C[C@H](O)C[C@H]1C(N)=O)C(C)C)[C@@H](C)O)C(C)C)[C@@H](C)O` [compound 318] (H-KCNTATCTVQWLAHQIYQFTDKDKDNVPPTNVGSNG[Hyp]-NH2; disulfide 2-7; N-terminus assumed), the EC50 was 0.009 nM at hAMY3 receptor and over 5000 nM on hAM1 receptor. Moreover, the “Max ThT signal (%)” value in data set [1] was 14.900%.

Regarding `CC[C@H](C)[C@H](NC(=O)[C@H](CCC(N)=O)NC(=O)[C@H](Cc1c[nH]cn1)NC(=O)[C@H](C)NC(=O)[C@H](CC(C)C)NC(=O)[C@H](CCCNC(=N)N)NC(=O)[C@H](CCC(N)=O)NC(=O)[C@@H](NC(=O)[C@@H](NC(=O)[C@@H]1CSSC[C@H](NC(=O)[C@@H](N)CCCCN)C(=O)N[C@@H](CC(N)=O)C(=O)N[C@@H]([C@@H](C)O)C(=O)N[C@@H](C)C(=O)N[C@@H]([C@@H](C)O)C(=O)N1)[C@@H](C)O)C(C)C)C(=O)N[C@@H](Cc1ccc(O)cc1)C(=O)N[C@@H](CCC(N)=O)C(=O)N[C@@H](Cc1ccccc1)C(=O)N[C@H](C(=O)N[C@@H](CC(=O)O)C(=O)N[C@@H](CCCCN)C(=O)N[C@@H](CC(=O)O)C(=O)N[C@@H](CCCCN)C(=O)N[C@@H](CC(=O)O)C(=O)N[C@@H](CC(N)=O)C(=O)N[C@@H](C)C(=O)N[C@@H](C)C(=O)N1CCC[C@H]1C(=O)N1CCC[C@H]1C(=O)N[C@H](C(=O)N[C@@H](CC(N)=O)C(=O)N[C@H](C(=O)NCC(=O)N[C@@H](CO)C(=O)N[C@@H](CC(N)=O)C(=O)NCC(=O)N1C[C@H](O)C[C@H]1C(N)=O)C(C)C)[C@@H](C)O)[C@@H](C)O` [compound 27] (H-KCNTATCTVQRLAHQIYQFTDKDKDNAAPPTNVGSNG[Hyp]-NH2; disulfide 2-7; N-terminus assumed), the EC50 on hAMY3 receptor is 0.008 nM; on hAM1 receptor, over 5000 nM. In addition, the “Max ThT signal (%)” value in data set [1] came out at 21.80%.

For the compound `CC[C@H](C)[C@H](NC(=O)[C@H](CCC(N)=O)NC(=O)[C@H](Cc1c[nH]cn1)NC(=O)[C@H](C)NC(=O)[C@H](CC(C)C)NC(=O)[C@H](CCCNC(=N)N)NC(=O)[C@H](CCC(N)=O)NC(=O)[C@@H](NC(=O)[C@@H](NC(=O)[C@@H]1CSSC[C@H](NC(=O)[C@@H](N)CCCCN)C(=O)N[C@@H](CC(N)=O)C(=O)N[C@@H]([C@@H](C)O)C(=O)N[C@@H](C)C(=O)N[C@@H]([C@@H](C)O)C(=O)N1)[C@@H](C)O)C(C)C)C(=O)N[C@@H](Cc1ccc(O)cc1)C(=O)N[C@@H](CCC(N)=O)C(=O)N[C@@H](C)C(=O)N[C@H](C(=O)N[C@@H](CC(=O)O)C(=O)N[C@@H](CCCCN)C(=O)N[C@@H](CC(=O)O)C(=O)N[C@@H](CCCCN)C(=O)N[C@@H](CC(=O)O)C(=O)N[C@@H](CC(N)=O)C(=O)N[C@H](C(=O)N[C@@H](C)C(=O)N1CCC[C@H]1C(=O)N1CCC[C@H]1C(=O)N[C@H](C(=O)N[C@@H](CC(N)=O)C(=O)N[C@H](C(=O)NCC(=O)N[C@@H](CO)C(=O)N[C@@H](CC(N)=O)C(=O)NCC(=O)N1C[C@H](O)C[C@H]1C(N)=O)C(C)C)[C@@H](C)O)C(C)C)[C@@H](C)O` [compound 114] (H-KCNTATCTVQRLAHQIYQATDKDKDNVAPPTNVGSNG[Hyp]-NH2; disulfide 2-7; N-terminus assumed), the EC50 on hAMY3 receptor is 0.022 nM; at hAM1 receptor it was over 5000 nM. Also, the “Max ThT signal (%)” value in data set [1] is reported as 2.200%.

As to `CC[C@H](C)[C@H](NC(=O)[C@H](CCC(N)=O)NC(=O)[C@H](Cc1c[nH]cn1)NC(=O)[C@H](C)NC(=O)[C@H](CC(C)C)NC(=O)[C@H](Cc1c[nH]c2ccccc12)NC(=O)[C@H](CCC(N)=O)NC(=O)[C@@H](NC(=O)[C@@H](NC(=O)[C@@H]1CSSC[C@H](NC(=O)[C@@H](N)CCCCN)C(=O)N[C@@H](CC(N)=O)C(=O)N[C@@H]([C@@H](C)O)C(=O)N[C@@H](C)C(=O)N[C@@H]([C@@H](C)O)C(=O)N1)[C@@H](C)O)C(C)C)C(=O)N[C@@H](Cc1ccc(O)cc1)C(=O)N[C@@H](CCC(N)=O)C(=O)N[C@@H](Cc1ccccc1)C(=O)N[C@H](C(=O)N[C@@H](CC(=O)O)C(=O)N[C@@H](CCCCN)C(=O)N[C@@H](CC(=O)O)C(=O)N[C@@H](CCCCN)C(=O)N[C@@H](CC(=O)O)C(=O)N[C@@H](CC(N)=O)C(=O)N[C@H](C(=O)N[C@@H](C)C(=O)N1CCC[C@H]1C(=O)N1CCC[C@H]1C(=O)N[C@H](C(=O)N[C@@H](CC(N)=O)C(=O)N[C@H](C(=O)NCC(=O)N[C@@H](CO)C(=O)N[C@@H](CC(N)=O)C(=O)NCC(=O)N1C[C@H](O)C[C@H]1C(N)=O)C(C)C)[C@@H](C)O)C(C)C)[C@@H](C)O` [compound 330] (H-KCNTATCTVQWLAHQIYQFTDKDKDNVAPPTNVGSNG[Hyp]-NH2; disulfide 2-7; N-terminus assumed), the figures for the EC50 at hAMY3 receptor and at hAM1 receptor were 0.008 nM and over 5000 nM, respectively. Besides, the “Max ThT signal (%)” value in data set [1] was found to be 14.600%.

With `CC[C@H](C)[C@H](NC(=O)[C@H](CCC(N)=O)NC(=O)[C@H](Cc1c[nH]cn1)NC(=O)[C@H](C)NC(=O)[C@H](CC(C)C)NC(=O)[C@H](Cc1c[nH]c2ccccc12)NC(=O)[C@H](CCC(N)=O)NC(=O)[C@@H](NC(=O)[C@@H](NC(=O)[C@@H]1CSSC[C@H](NC(=O)CN)C(=O)N[C@@H](CCCNC(=N)N)C(=O)N[C@@H]([C@@H](C)O)C(=O)NCC(=O)N[C@@H]([C@@H](C)O)C(=O)N1)[C@@H](C)O)C(C)C)C(=O)N[C@@H](Cc1ccc(O)cc1)C(=O)N[C@@H](CCC(N)=O)C(=O)N[C@@H](Cc1ccccc1)C(=O)N[C@H](C(=O)N[C@@H](CC(=O)O)C(=O)N[C@@H](CCCCN)C(=O)N[C@@H](CC(=O)O)C(=O)N[C@@H](CCCCN)C(=O)N[C@@H](CC(=O)O)C(=O)N[C@@H](CC(N)=O)C(=O)N[C@H](C(=O)N[C@@H](C)C(=O)N1CCC[C@H]1C(=O)N[C@@H](CCCNC(=N)N)C(=O)N[C@H](C(=O)N[C@@H](CC(N)=O)C(=O)N[C@H](C(=O)NCC(=O)N1CCC[C@H]1C(=O)N[C@@H](CCC(N)=O)C(=O)NCC(=O)N1C[C@H](O)C[C@H]1C(N)=O)C(C)C)[C@@H](C)O)C(C)C)[C@@H](C)O` [compound 323] (H-GCRTGTCTVQWLAHQIYQFTDKDKDNVAPRTNVGPQG[Hyp]-NH2; disulfide 2-7; N-terminus assumed), the EC50 at hAMY3 receptor was 0.014 nM; at hAM1 receptor, over 5000 nM. In addition, the “Max ThT signal (%)” value in data set [1] came out at 27.500%.
